Experimental data from ChEMBL document CHEMBL1144325, “Synthesis and monoamine transporter affinity of new 2beta-carbomethoxy-3beta-[4-(substituted thiophenyl)]phenyltropanes: discovery of a selective SERT antagonist with picomolar potency” (Bioorg Med Chem Lett, 2005).

How the values were obtained:
[1] = target: Sodium-dependent serotonin transporter (Rattus norvegicus, UniProt P31652); assay: Displacement of [3H]paroxetine from serotonin transporter of rat cerebral cortex; assay type: tissue-based
[2] = target: Sodium-dependent dopamine transporter (Rattus norvegicus, UniProt P23977); assay: Displacement of [3H]GBR-12935 from dopamine transporter of rat caudate-putamen; assay type: tissue-based
[3] = target: Monoamine transporters; Norepinephrine & serotonin (Rattus norvegicus) (UniProt P31652+Q9WTR4); assay: Selectivity for inhibition of serotonin and norepinephrine transporters; assay type: protein assay
[4] = target: Monoamine transporters; serotonin & dopamine (Rattus norvegicus) (UniProt P31652+P23977); assay: Selectivity for inhibition of serotonin and dopamine transporters; assay type: protein assay
[5] = target: Norepinephrine transporter (Rattus norvegicus, UniProt Q9WTR4); assay: Displacement of [3H]nisoxetine from norepinephrine transporter of rat cerebral cortex; assay type: tissue-based
Sequence of Norepinephrine transporter (Q9WTR4 whole entry): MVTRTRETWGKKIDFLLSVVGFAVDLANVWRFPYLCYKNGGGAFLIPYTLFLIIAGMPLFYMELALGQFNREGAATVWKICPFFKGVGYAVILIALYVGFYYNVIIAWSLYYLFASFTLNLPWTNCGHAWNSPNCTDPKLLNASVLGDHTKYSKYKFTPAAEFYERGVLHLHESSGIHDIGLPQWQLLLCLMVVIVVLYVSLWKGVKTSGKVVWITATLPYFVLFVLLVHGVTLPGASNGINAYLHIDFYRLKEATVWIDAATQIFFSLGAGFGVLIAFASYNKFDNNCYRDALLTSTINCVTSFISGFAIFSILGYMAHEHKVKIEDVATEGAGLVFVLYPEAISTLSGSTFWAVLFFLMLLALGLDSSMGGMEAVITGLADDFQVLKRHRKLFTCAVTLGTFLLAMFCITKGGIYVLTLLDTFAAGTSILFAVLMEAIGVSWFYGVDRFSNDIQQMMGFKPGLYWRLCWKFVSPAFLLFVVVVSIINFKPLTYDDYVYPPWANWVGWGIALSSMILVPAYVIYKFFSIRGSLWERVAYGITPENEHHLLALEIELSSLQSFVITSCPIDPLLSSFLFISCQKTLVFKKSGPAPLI

Sequence of Sodium-dependent dopamine transporter (P23977 whole entry): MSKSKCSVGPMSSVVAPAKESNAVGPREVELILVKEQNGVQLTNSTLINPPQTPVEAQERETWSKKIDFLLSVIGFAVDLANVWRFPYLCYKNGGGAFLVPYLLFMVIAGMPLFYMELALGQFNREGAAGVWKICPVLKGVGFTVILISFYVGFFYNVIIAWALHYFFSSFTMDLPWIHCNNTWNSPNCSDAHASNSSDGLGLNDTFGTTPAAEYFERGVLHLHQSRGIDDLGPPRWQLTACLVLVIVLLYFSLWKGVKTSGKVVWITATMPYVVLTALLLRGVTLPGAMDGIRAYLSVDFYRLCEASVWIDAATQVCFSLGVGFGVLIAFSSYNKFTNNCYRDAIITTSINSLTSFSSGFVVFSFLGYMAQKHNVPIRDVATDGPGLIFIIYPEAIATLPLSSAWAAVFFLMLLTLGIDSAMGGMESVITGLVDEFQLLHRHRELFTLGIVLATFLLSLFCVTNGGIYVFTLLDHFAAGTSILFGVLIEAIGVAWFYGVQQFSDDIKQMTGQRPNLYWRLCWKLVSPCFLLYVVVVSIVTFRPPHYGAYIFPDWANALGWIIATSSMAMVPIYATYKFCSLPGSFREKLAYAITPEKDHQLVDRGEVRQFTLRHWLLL
Sequence of Monoamine transporters; serotonin & dopamine (Rattus norvegicus) (P23977 whole entry, looked up): as the sequence (P23977 whole entry) above
Sequence of Monoamine transporters; serotonin & dopamine (Rattus norvegicus) (P31652 whole entry, looked up): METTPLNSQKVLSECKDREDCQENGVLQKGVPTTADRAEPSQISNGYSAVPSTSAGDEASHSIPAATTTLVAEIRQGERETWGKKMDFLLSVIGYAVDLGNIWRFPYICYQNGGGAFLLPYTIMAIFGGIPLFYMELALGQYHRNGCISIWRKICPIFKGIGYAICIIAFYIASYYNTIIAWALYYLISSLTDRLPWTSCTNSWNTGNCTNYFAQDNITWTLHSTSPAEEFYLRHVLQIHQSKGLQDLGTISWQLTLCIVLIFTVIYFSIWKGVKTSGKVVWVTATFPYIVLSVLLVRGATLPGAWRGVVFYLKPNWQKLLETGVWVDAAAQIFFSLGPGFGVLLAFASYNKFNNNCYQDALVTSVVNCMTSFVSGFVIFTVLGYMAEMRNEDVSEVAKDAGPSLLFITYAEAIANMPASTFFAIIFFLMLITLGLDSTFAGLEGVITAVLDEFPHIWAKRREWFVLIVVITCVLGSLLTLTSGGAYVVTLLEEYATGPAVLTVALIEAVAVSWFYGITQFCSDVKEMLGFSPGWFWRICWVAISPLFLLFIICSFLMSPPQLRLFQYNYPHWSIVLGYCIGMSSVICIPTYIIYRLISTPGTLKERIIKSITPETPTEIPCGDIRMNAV
Sequence of Sodium-dependent serotonin transporter (P31652 whole entry): as the sequence (P31652 whole entry, looked up) above

In the case of COC(=O)C1C(c2ccc(-c3ccc(N)s3)cc2)CC2CCC1N2C (configuration not stated), the Ki [1] is reported as 64.7 nM, the Ki [2] is reported as greater than 10000 nM and the Ratio [3] is reported as greater than 464. The Ratio [4] was greater than 155 and the Ki [5] was greater than 30000 nM.
Work on COC(=O)C1C2CCC(CC1c1ccc(-c3ccsc3)cc1)N2 (configuration not stated) yielded a Ki [1] of 0.23 nM, a Ki [2] of 6.4 nM and a Ratio [3] of 170. The Ratio [4] was 28 and the Ki [5] was 39 nM.
In the case of COC(=O)C1C(c2ccc(-c3ccc(Br)s3)cc2)CC2CCC1N2C (configuration not stated), the Ki [1] is reported as 0.38 nM, the Ki [2] is reported as 6.43 nM and the Ratio [3] is reported as 853. The Ratio [4] was 17 and the Ki [5] was 324 nM.
With COC(=O)C1C(c2ccc(I)cc2)CC2CCC1N2C (configuration not stated) the Ratio [3] was 6.1 and the Ratio [4] was 2.1.
Work on COC(=O)C1C2CCC(CC1c1ccc(-c3cccs3)cc1)N2 (configuration not stated) yielded a Ki [1] of 0.11 nM, a Ki [2] of 12.2 nM and a Ratio [3] of 685. The Ratio [4] was 111 and the Ki [5] was 75.3 nM.
Work on COC(=O)C1C(c2ccc(-c3ccsc3)cc2)CC2CCC1N2C (configuration not stated) yielded a Ki [1] of 0.017 nM, a Ki [2] of 12.1 nM and a Ratio [3] of 11100. The Ratio [4] was 710 and the Ki [5] was 189 nM.
COC(=O)C1C(c2ccc(-c3cccs3)cc2)CC2CCC1N2C (configuration not stated) was tested, and the Ki [1] was 0.15 nM, the Ki [2] was 52 nM and the Ratio [3] was 1050. It also gave a Ratio [4] of 346 and a Ki [5] of 158 nM.
With COC(=O)C1C(c2ccc(-c3ccc(Cl)s3)cc2)CC2CCC1N2C (configuration not stated) the Ki [1] was 0.64 nM, the Ki [2] was 4.42 nM and the Ratio [3] was 486. For the same compound, the Ratio [4] was 6.9 and the Ki [5] was 311 nM.
COC(=O)C1C(c2ccc(-c3cc([N+](=O)[O-])c([N+](=O)[O-])s3)cc2)CC2CCC1N2C (configuration not stated) showed a Ki [1] of 5000 nM, a Ki [2] greater than 30000 nM and a Ratio [3] greater than 2. For the same compound, the Ratio [4] was greater than 6 and the Ki [5] was greater than 10000 nM.
In the case of COC(=O)C1C(c2ccc(-c3ccc(I)s3)cc2)CC2CCC1N2C (configuration not stated), the Ki [1] is reported as 4.56 nM, the Ki [2] is reported as 22.1 nM and the Ratio [3] is reported as 249. It also gave a Ratio [4] of 4.9 and a Ki [5] of 1140 nM.
COC(=O)C1C(c2ccc(-c3cscc3Br)cc2)CC2CCC1N2C (configuration not stated) was tested, and the Ki [1] was 4.02 nM, the Ki [2] was 183 nM and the Ratio [3] was greater than 2490. The Ratio [4] was 46 and the Ki [5] was greater than 10000 nM.
